Assay results from article PMC7267738 (iScience, 2020).

How the values were obtained:
[1] = biological target: c-Met (Homo sapiens, UniProt P08581); format: cell-based
[2] = biological target: purified recombinant c-Met kinase domains (Homo sapiens, UniProt P08581); experiment: Biochemical kinase assay
Chain of purified recombinant c-Met kinase domains (P08581 1078-1345 limits assumed): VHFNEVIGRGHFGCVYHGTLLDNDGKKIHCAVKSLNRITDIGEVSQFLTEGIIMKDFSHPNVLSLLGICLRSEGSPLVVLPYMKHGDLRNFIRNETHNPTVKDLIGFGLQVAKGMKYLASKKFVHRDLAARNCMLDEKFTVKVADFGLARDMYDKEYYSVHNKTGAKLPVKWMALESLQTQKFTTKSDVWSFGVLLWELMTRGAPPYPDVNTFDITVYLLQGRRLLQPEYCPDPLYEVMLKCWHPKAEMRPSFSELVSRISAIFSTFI

Chain of c-Met (P08581 25-1390): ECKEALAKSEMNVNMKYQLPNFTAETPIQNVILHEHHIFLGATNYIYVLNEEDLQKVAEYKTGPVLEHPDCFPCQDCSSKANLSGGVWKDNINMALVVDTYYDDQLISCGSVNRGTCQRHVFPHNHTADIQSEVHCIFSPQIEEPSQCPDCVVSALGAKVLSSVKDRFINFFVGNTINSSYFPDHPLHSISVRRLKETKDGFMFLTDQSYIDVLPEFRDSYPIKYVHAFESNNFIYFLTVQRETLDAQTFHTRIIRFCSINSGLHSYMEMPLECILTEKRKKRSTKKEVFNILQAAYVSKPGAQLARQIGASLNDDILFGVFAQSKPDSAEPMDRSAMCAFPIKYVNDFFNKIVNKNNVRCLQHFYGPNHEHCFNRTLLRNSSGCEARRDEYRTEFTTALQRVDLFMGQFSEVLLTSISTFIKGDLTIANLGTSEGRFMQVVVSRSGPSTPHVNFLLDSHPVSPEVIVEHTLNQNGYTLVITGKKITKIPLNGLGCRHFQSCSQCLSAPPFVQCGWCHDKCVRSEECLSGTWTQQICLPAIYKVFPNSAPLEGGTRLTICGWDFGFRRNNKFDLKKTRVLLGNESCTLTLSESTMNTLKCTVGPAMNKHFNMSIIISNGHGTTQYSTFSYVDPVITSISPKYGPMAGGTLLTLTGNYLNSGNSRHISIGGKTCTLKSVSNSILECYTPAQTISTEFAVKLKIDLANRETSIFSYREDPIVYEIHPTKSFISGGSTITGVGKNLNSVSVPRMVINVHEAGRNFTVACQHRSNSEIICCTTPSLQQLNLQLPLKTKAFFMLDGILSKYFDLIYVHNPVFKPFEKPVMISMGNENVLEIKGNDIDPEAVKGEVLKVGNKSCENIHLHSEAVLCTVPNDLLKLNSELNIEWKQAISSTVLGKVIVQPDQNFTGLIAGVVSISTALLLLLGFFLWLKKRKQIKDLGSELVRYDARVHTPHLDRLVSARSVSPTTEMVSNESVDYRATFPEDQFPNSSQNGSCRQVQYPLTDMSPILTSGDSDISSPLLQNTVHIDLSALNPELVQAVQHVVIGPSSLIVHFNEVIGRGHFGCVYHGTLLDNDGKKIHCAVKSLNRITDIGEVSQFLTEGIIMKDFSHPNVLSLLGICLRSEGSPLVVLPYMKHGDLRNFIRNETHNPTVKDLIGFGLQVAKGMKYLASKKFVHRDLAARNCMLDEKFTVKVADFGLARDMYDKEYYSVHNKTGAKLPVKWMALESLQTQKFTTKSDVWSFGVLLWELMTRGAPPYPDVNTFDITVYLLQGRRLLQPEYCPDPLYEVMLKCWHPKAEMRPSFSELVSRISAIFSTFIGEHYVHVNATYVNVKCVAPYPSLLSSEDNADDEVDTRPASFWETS

IC50 [1]: 25 µM
IC50 [2]: 0.0403 µM
SMILES: COc1cc2ncnc(Oc3ccc(Nc4nccc5[nH]cc(-c6ccc(C(F)(F)F)cc6)c(=O)c45)cc3F)c2cc1OC [Compound 5d]
